Laboratory results published in patent US8932853B2, “Method for manufacturing pancreatic-hormone-producing cells” (Takeda Pharmaceutical Company Limited, priority 2009, dated 2015).
“Also recorded” adds a separate entry of the source.

Key:
Format in all cases: cell-based
[1] = system: insulin-producing cells differentiated from human iPS cells; test: C-peptide secretion of differentiated insulin-producing cells in response to stimulation (Human C-peptide ELISA); conditions: 1 hr at 37° C. in buffer containing 2.5 mM glucose; (−)-Bay K8644 2 μM, tolbutamide 100 μM, carbachol 250 μM, IBMX 0.5 mM, KCl 30 mM; relative to 2.5 mM glucose
Protocol: The medium was changed once on day 7 of induction. […] The medium was changed every 3-4 days. After the culture, the cells were washed with a buffer containing 2.5 mM glucose (NaCl (116 mM), KCl (4.7 mM), KH2PO4 (1.18 mM), MgSO4 (1.18 mM), NaHCO3 (25 mM), CaCl2 (2.52 mM), HEPES (24 mM), 0.1% BSA), a buffer containing 2.5 mM glucose was added and the mixture was cultured at 37° C. for 2 hr. The supernatant was completely removed, and a buffer containing 2.5 mM glucose, a buffer containing 22.5 mM glucose, a buffer containing 2.5 mM glucose and 2 μM (−)-Bay K8644, a buffer containing 2.5 mM glucose and 100 μM tolbutamide, a buffer containing 2.5 mM glucose and 250 μM carbachol, a buffer containing 2.5 mM glucose and 0.5 mM IBMX, and a buffer containing 2.5 mM glucose and 30 mM KCl were respectively added. After culture at 37° C. for 1 hr, the culture supernatant was recovered, and the C-peptide contained in the culture supernatant was measured using Human C-peptide ELISA kit (Mercodia AB).

[2] = system: human iPS cells (253G1 strain); test: immunofluorescent staining with anti-SOX17 antibody on day 3 of differentiation induction
Protocol: To examine expression of SOX17 protein after culture for 3 days, immunofluorescent staining using an anti-SOX17 antibody was performed. After culture up to day 3 in the same manner as in FIG. 1, the cells were fixed with 2% para-formaldehyde (PFA) for 10 min and further for 20 min with 4% PFA at room temperature.
Whether even use of a GSK3 inhibitor other than CHIR99021 in step (1) enables differentiation induction into endodermal cells was examined. The differentiation of human iPS cells into endodermal cells was induced according to the following method. […] Thereafter, the cells were washed with RPMI medium (GIBCO), and cultured for 1 day in RPMI medium containing various GSK3 inhibitors, activin A (100 ng/ml) and 2% fetal bovine serum (FBS). […] As a control, the cells were treated with a medium added only with activin A and free of GSK3 inhibitor. After culture for 1 day, the cells were washed with RPMI medium, and further cultured for 2 days in RPMI medium added with 2% FBS and 100 ng/ml activin A.
To examine expression of SOX17 protein on day 3 of differentiation induction, immunofluorescent staining using an anti-SOX17 antibody was performed. 4% PFA was added to the cells on day 3 of culture under each condition, the mixture was incubated at room temperature for 30 min to fix the cells.

[3] = system: human iPS cells (253G1 strain); test: quantitative RT-PCR of BRACHYURY and SOX17 during induction of human iPS cells into endodermal cells, steps (1)-(2); conditions: added with activin A (100 ng/ml) only the first day, CHIR99021 3 μM, Wnt3a 25 ng/ml, relative to GAPDH
Description: As a first stage for induction of differentiation of human iPS cells (iPS cells obtained by introducing Oct3/4 gene, Klf4 gene and Sox2 gene: see Nat Biotechnol 2008; 26: 101-106) into pancreas cells (particularly pancreatic hormone-producing cells), differentiation of human iPS cells was induced into endodermal cells by using a 96 well plate.
As the human iPS cells, 253G1 strain (iPS cell line produced by expressing OCT4/SOX2/KLF4 with retrovirus; Nature Biotechnology 26, 101-106) was used. Maintenance culture of the iPS cells in an undifferentiated state was performed using mitomycin-treated mouse fibroblast (MEFs) seeded on a gelatin-coated plate as feeder cells, and a medium for primate ES cells (ReproCELL Incorporated) added with 4 ng/ml bFGF (PeproTech EC) and 0.5× Penicillin-streptomycin (SIGMA) as a medium at 37° C. under 5% CO2. The medium was changed every day, the cell mass was detached every 4-5 days using a cell detachment solution for primate ES cell (ReproCELL Incorporated), and passaged by seeding on new feeder cells.
As a preculture for differentiation induction into endodermal cells, undifferentiated iPS cells were seeded in a 96 well plate. First, iPS cells maintained in a cell mass was treated with 0.25% trypsin-1 mM EDTA solution (GIBCO) and dissociated until they became single cells. Then, iPS cells dispersed in a medium were seeded in a 96 well plate at a density of 2×10^4 cells per well and cultured at 37° C. under 5% CO2 for 1 day. The 96 well plate used had been gelatin-coated, seeded with 5×10^3 MEFs and cultured at 37° C. under 5% CO2 for 5 hr. In addition, as a culture medium for seeding, a medium for primate ES cells added with 10 μM Y-27632 (Wako Pure Chemical Industries, Ltd.) was used. One day after seeding, the medium was changed to a medium for primate ES cells without Y-27632, and the cells were further cultured for 2 days until they became confluent.
Differentiation of iPS cells into endodermal cells was induced according to the following method. First, the confluent cells were washed with RPMI medium (GIBCO), RPMI medium containing various differentiation-inducing factors and 2% fetal bovine serum (FBS) was added, and the mixture was cultured for 1 day. […]
To examine variation in the expression of endoderm differentiation marker when cultured under each condition, differentiation-induced cells were recovered over time, and the total RNA fractions were purified using RNeasy96 (Qiagen). Using a PrimeScript RT reagent kit (Takara Bio Inc.), cDNA was synthesized, and quantitative RT-PCR was performed, whereby the gene expression level of BRACHYURY, which is a primitive streak marker, and SOX17, which is an endodermal marker, was measured.

[4] = system: progenitor cells of pancreatic hormone-producing cells induced from human iPS cells; test: immunofluorescent staining with anti-insulin antibody after step (4); conditions: each added alone in step (4), day 10 to day 21; forskolin 10 μM, dibutyl cAMP 500 μM, IBMX 200 μM, ALK5 inhibitor II 5 μM, A-83-01 0.5 μM, SB431542 10 μM, TGFβRI kinase inhibitor VIII 2 μM, dexamethasone 10 μM, hydrocortisone 5 μM, betamethasone 2 μM, beclomethasone 1 μM
[5] = system: endodermal cells induced from human iPS cells; conditions: added simultaneously with dorsomorphin (1 μM) and retinoic acid (2 μM) day 3 to day 10; SB431542 5 μM, ALK5 inhibitor II 2 μM, A-83-01 0.2 μM, TGFβRI kinase inhibitor VIII 0.2 μM; vs dorsomorphin and retinoic acid alone
Protocol: The dorsomorphin is an inhibitor of AMP-activated protein kinase (AMPK), and an inhibitor of ALK2, ALK3 and ALK6 from among activin receptor-like kinases (ALK). In addition, SB431542 is an inhibitor of ALK4, ALK5 and ALK7 from among ALKs.
As a control, the medium was changed to one added with dorsomorphin and retinoic acid alone (Ctrl). […] After the culture, the expression level of NGN3, which is progenitor cells of pancreatic hormone-producing cells marker, was measured in the same manner as in Example 1.

Row | Molecule | C-peptide secretion level [1] | positive rate of insulin-expressing cells [4] | also measured
1 | COC(=O)C1=C(C)NC(C)=C([N+](=O)[O-])C1c1ccccc1C(F)(F)F (single isomer, unassigned; (-)) [(−)-Bay K8644] | increased |  | 
2 | Cc1c[nH]c(-c2cnc(NCCNc3ccc(C#N)cn3)nc2-c2ccc(Cl)cc2Cl)n1 [CHIR99021, 6-[[2-[[4-(2,4-dichlorophenyl)-5-(4-methyl-1H-imidazol-2-yl)-2-pyrimidinyl]amino]ethyl]amino]nicotinonitrile] |  |  | ratio of cells expressing SOX17 protein ([2]; added with activin A (100 ng/ml) for 1 day, then activin A alone 2 days, CHIR99021 3 μM, Wnt3a 25 ng/ml, SB415286 3 μM, SB216763 20 μM): highest; also recorded: increased; expression level of SOX17 (endodermal marker) ([3]; then activin A alone 2 days, days 2-3): increased markedly; also recorded: high value; expression level of BRACHYURY (primitive streak marker) ([3]; day 1 of differentiation induction): transiently increased; also recorded: highest value
3 | Cc1cccc(-c2nn(C(=S)Nc3ccccc3)cc2-c2ccnc3ccccc23)n1 [Example A-83-01, 3-[6-methyl-2-pyridinyl]-N-phenyl-4-[4-quinolinyl]-1H-pyrazole-1-carbothioamide] |  | remarkably increased; also recorded: induced differentiation into insulin-positive cells with high efficiency | expression level of NGN3 [5]: increased remarkably
4 | CC(C)Cn1c(=O)n(C)c(=O)c2[nH]cnc21 [IBMX, 3-isobutyl-1-methylxanthine] | increased | remarkably increased; also recorded: induced differentiation into insulin-positive cells with high efficiency | 
5 | [Cl-].[K+] [KCl] | increased |  | 
6 | NC(=O)c1ccc(-c2nc(-c3ccc4c(c3)OCO4)c(-c3ccccn3)[nH]2)cc1 [SB431542, 4-[4-(1,3-benzodioxol-5-yl)-5-(2-pyridinyl)-1H-imidazol-2-yl]-benzamide] |  | remarkably increased; also recorded: induced differentiation into insulin-positive cells with high efficiency | expression level of NGN3 [5]: increased remarkably
7 | Cc1cccc(-c2[nH]c(C(C)(C)C)nc2-c2ccc3nccnc3c2)n1 [TGFβRI kinase inhibitor VIII, 6-[2-tert-butyl-5-[6-methyl-pyridin-2-yl]-1H-imidazol-4-yl]-quinoxaline] |  | remarkably increased; also recorded: induced differentiation into insulin-positive cells with high efficiency | expression level of NGN3 [5]: increased remarkably
8 | C[C@H]1C[C@H]2[C@@H]3CCC4=CC(=O)C=C[C@]4(C)[C@@]3(Cl)[C@@H](O)C[C@]2(C)[C@@]1(O)C(=O)CO [beclomethasone] |  | remarkably increased; also recorded: induced differentiation into insulin-positive cells with high efficiency | 
9 | C[N+](C)(C)CCOC(N)=O [carbachol] | increased |  | 
10 | CCCC(=O)Nc1ncnc2c1ncn2[C@@H]1O[C@@H]2COP(=O)(O)O[C@H]2[C@H]1OC(=O)CCC [dibutyl cAMP] |  | remarkably increased; also recorded: induced differentiation into insulin-positive cells with high efficiency | 
11 | C[C@]12CCC(=O)C=C1CC[C@@H]1[C@@H]2[C@@H](O)C[C@@]2(C)[C@H]1CC[C@]2(O)C(=O)CO [hydrocortisone] |  | remarkably increased; also recorded: induced differentiation into insulin-positive cells with high efficiency | 
12 | CCCCNC(=O)NS(=O)(=O)c1ccc(C)cc1 [tolbutamide] | increased |  | 
13 | activin A: 24 kD peptidic cell proliferation and differentiation factor belonging to the TGFβ family; activator of activin receptor-like kinase-4,7 (protein, UniProt P08476 311-426, looked up, Inhibin beta A chain) Inhibin beta A chain: GLECDGKVNICCKKQFFVSFKDIGWNDWIIAPSGYHANYCEGECPSHIAGTSGSSLSFHSTVINHYRMRGHSPFANLKSCCVPTKLRPMSMLYYDDGQNIIKKDIQNMIVEECGCS |  |  | ratio of cells expressing SOX17 protein ([2]; activin A (100 ng/ml) alone for 3 days (Comparative Example 1)): a part of the cells also expressed SOX17 protein
